According to ChEMBL document CHEMBL1177773, “Design, synthesis and anticancer activity of piperazine hydroxamates and their histone deacetylase (HDAC) inhibitory activity” (Bioorg Med Chem Lett, 2010):

How the values were obtained:
U-251 = test: Cytotoxicity against human U251 cells after 48 hrs by MTT assay; assay type: functional; conditions: for CC50: read-out: LC50 (the source's name)
NCI-H460 = test: Cytotoxicity against human NCI-H460 cells after 48 hrs by MTT assay; assay type: functional; conditions: for CC50: read-out: LC50 (the source's name)
HCT-116 = test: Cytotoxicity against human HCT116 cells after 48 hrs by MTT assay; assay type: functional; conditions: for CC50: read-out: LC50 (the source's name)
HL-60 = test: Growth inhibition of human HL60 cells after 48 hrs; assay type: functional, cell-based; conditions: HL-60, 48 h
Histone deacetylase 8 = biological target: T1, Histone deacetylase 8 (Homo sapiens, UniProt Q9BY41); test: Inhibition of human HDAC8
T1 sequence (Q9BY41 whole entry): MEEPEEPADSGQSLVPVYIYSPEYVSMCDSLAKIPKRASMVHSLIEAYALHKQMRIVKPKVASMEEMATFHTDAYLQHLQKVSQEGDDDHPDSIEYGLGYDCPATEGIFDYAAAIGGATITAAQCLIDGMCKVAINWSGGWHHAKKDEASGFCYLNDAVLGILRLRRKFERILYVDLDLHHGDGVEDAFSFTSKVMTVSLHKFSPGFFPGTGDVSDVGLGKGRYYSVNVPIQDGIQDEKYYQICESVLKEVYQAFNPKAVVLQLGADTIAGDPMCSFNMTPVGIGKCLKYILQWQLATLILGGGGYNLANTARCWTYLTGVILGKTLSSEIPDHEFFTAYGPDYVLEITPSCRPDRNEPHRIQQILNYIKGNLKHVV

Compound | GI50 (U-251; Homo sapiens, U-251, 48 h) [µM] | CC50 (U-251; Homo sapiens, U-251, 48 h) [µM] | GI50 (NCI-H460; Homo sapiens, NCI-H460, 48 h) [µM] | CC50 (NCI-H460; Homo sapiens, NCI-H460, 48 h) [µM] | GI50 (HCT-116; Homo sapiens, HCT-116, 48 h) [µM] | CC50 (HCT-116; Homo sapiens, HCT-116, 48 h) [µM] | IC50 (HL-60) [µM] | IC50 (Histone deacetylase 8) [µM] | GI50 (U-251) [µM] | CC50 (U-251) [µM] | GI50 (NCI-H460) [µM] | CC50 (NCI-H460) [µM] | CC50 (HCT-116) [µM]
O=C1Nc2ccccc2/C1=N/NC(=S)N1CCN(C(=O)NO)CC1 | > 100 | > 100 | > 100 | > 100 | > 100 | > 100 |  |  |  |  |  |  | 
O=C(NO)N1CCN(C(=S)N/N=C/c2c3ccccc3cc3ccccc23)CC1 | 65 | > 100 | 9.5 | > 100 | 70 | > 100 |  |  |  |  |  |  | 
O=C(NO)N1CCN(C(=S)N/N=C/c2ccccc2O)CC1 | 14.2 | > 100 | 5.15 | > 100 | 8.6 | > 100 | 0.6 | 33.7 |  |  |  |  | 
O=C(NO)N1CCN(C(=S)N/N=C/c2ccc(Cl)cc2)CC1 | 8.5 | > 100 | 16 | > 100 | 11.6 | > 100 |  | 43.2 |  |  |  |  | 
Cc1ccc(/C=N/NC(=S)N2CCN(C(=O)NO)CC2)cc1 | 27.5 | > 100 | 51 | > 100 | 31 | > 100 |  |  |  |  |  |  | 
O=C(NO)N1CCN(C(=S)N/N=C/c2ccccc2Cl)CC1 | 13.5 | > 100 | 30 | > 100 | 11.5 | > 100 |  |  |  |  |  |  | 
O=C(CCCCCCC(=O)Nc1ccccc1)NO [VORINOSTAT] |  |  |  |  |  |  |  |  | 6.5 | > 100 | 8 | > 100 | > 100
